The values below come from EP2253620B1, “SUBSTITUTED 3-CYANOQUINOLINES AS PROTEIN TYROSINE KINASES INHIBITORS” (Wyeth Holdings LLC, priority 1998, dated 2000).

The target of data set [1] is T1, Kinase insert Domain containing Receptor (KDR: the catalytic domain of the VEGF receptor) (Homo sapiens, UniProt P35968).
T1 construct: KDR: the catalytic domain of the VEGF receptor
Put plainly: Inhibition of Kinase insert Domain containing Receptor (KDR) tyrosine kinase activity. The class given is biochemical. The text has this:
Inhibition of Kinase insert Domain containing Receptor (KDR: the catalytic domain of the VEGF receptor)
In this standard pharmacological test procedure, KDR protein is mixed, in the presence or absence of a inhibitor compound, with a substrate peptide to be phosphorylated (a copolymer of glutamic acid and tyrosine, E:Y :: 4:1) and other cofactors such as Mg^++ and sodium vanadate (a protein tyrosine phosphatase inhibitor) in an appropriate buffer to maintain pH (7.2). ATP and a radioactive tracer (either P^32- or P^33- labeled ATP) is then add to initiate phosphorylation. After incubation, the radioactive phosphate associated with the acid-insoluble fraction of the assay mixture is then quantified as reflection of substrate phosphorylation. […] Multiple entries for a given compound indication it was tested multiple times.

Data set [2] deals with Epithelial Cell Kinase (ECK) (Homo sapiens, UniProt P29317). Nature of the data set: Inhibition of Epithelial Cell Kinase (ECK) tyrosine kinase activity. The class given is biochemical. Here is the method:
In this standard pharmacological test procedure, a biotinylated peptide substrate is first immobilized on neutravidin-coated microtiter plates. The test drug, the Epithelial Cell Kinase (ECK), Mg^++, sodium vanadate (a protein tyrosine phosphatase inhibitor), and an appropriate buffer to maintain pH (7.2) are then added to the immobilized substrate-containing microtiter wells. ATP is then added to initiate phosphorylation. After incubation, the assay plates are washed with a suitable buffer leaving behind phosphorylated peptide which is exposed to horse radish peroxidase (HRP)-conjugated anti-phosphotyrosine monoclonal antibody. The antibody-treated plates are washed again and the HRP activity in individual wells is quantified as a reflection of degree of substrate phosphorylation. […] Multiple entries for a given compound indication it was tested multiple times.

A further data set addresses Mek and Erk (Homo sapiens, UniProt P28482+Q02750). Nature of the data set: Mitogen Activated Protein Kinase (MAPK) coupled assay (Mek-Erk). To be noted: coupled MEK 1 / ERK2; separate entries = separate tests; read-out: Mek and Erk. Format: biochemical. The protocol:
Mitogen Activated Protein Kinase (MAPK) Assay
To evaluate inhibitors of the MAP (mitogen activated protein) kinase a two component coupled standard pharmacological test procedure, which measures phosphorylation of a serine/threonine residue in an appropriate sequence in the substrate in the presence and absence of a putative inhibitor, was used. Recombinant human MEK 1 (MAPKK) was first used to activate recombinant human ERK2 (MAPK) and the activated MAPK (ERK) was incubated with substrate (MBP peptide or MYC peptide) in the presence of ATP, Mg^+2 and radiolabeled ^33P ATP. The phosphorylated peptide was captured on a P 81 phosphocellulose filter (paper filter or embedded in microtiter plate) washed and counted by scintillation methods.
The peptide substrates used in the assay are MBP, peptide substrate ([…]), or synthetic Myc substrate, ([…]•5 TFA. The recombinant enzymes used were prepared as GST fusion proteins of human ERK 2 and human MEK 1. Inhibitor samples were prepared as 10X stocks in 10% DMSO and an appropriate aliquot was used to deliver either 10 ug/ml for a single point screening dose or 100, 10, 1, and 0.1 uM final concentration for a dose response curve. Final DMSO concentrations were less than or equal to 1%.
The reaction was run as follows in 50 mM Tris kinase buffer, pH 7.4 in a reaction volume of 50 ul. The appropriate volume of kinase buffer and inhibitor sample was added to the tube. Appropriate dilution of enzyme was delivered to give 2-5 ug recombinant MAPK (Erk ) per tube. The inhibitor was incubated with MAPK (Erk) for 30 min at 0 deg. C. Recombinant Mek (MAPKK) ( 0.5-2.5 ug) or fully activated Mek (0.05-0.1 units) was added to activate the Erk and incubated for 30 min at 30° C. Then substrate and gamma ^33P ATP was were added to give a final concentration of 0.5- 1 mM MBPP or 250-500 uM Myc; 0.2-0.5 uCi gamma P 33 ATP/tube; 50 µM ATP final concentration. Samples were incubated at 30°C for 30 minutes and the reaction was stopped by adding 25 µl of ice cold 10 %TCA .After samples were chilled on ice for 30 min, 20 µl of sample was transferred onto P 81 phosphocellulose filter paper or appropriate MTP with embedded P 81 filter. Filter papers or MTP were washed 2 times with a large volume of 1% acetic acid, then 2 times with water. The filters or MTP were briefly air dried before addition of scintillant and samples were counted in the appropriate scintillation counter set up for reading ^33P isotope. Samples included a positive control (activated enzyme plus substrate); a no enzyme control; a no substrate control; samples with different concentrations of putative inhibitor; and samples with reference inhibitors (other active compounds or non-specific inhibitors such as staurosporine or K252 B).
The raw data was captured as cpm. Sample replicates were averaged and corrected for background count. Mean cpm data was tabulated by group and % inhibition by a test compound was calculated as (corrected cpm control- corrected. cpm sample/control) X 100 = % inhibition. […] The results obtained for representative compounds of this invention are listed in TABLE 2 where there may be separate entries for the same compound; this is an indication that the compound was evaluated more than one time.

Data set [3] addresses T2, epidermal growth factor receptor kinase (Homo sapiens, UniProt P00533).
T2 construct: containing the EGFR cDNA encoding amino acids 645 - 1186 preceded by Met-Ala-(His)6; made in house; host or cells: Sf9 insect cells, recombinant baculovirus vHcEGFR52
Put plainly: Inhibition of Epidermal Growth Factor Receptor Kinase (EGF-R) using recombinant enzyme. The class given is biochemical. To be noted: averages of the individual determinations.
Description: Representative test compounds were evaluated for their ability to inhibit the phosphorylation of the tyrosine residue of a peptide substrate catalyzed by the enzyme epidermal growth factor receptor kinase. […] The enzyme used in this assay is the His-tagged cytoplasmic domain of EGFR. A recombinant baculovirus (vHcEGFR52) was constructed containing the EGFR cDNA encoding amino acids 645 - 1186 preceded by Met-Ala-(His)6. Sf9 cells in 100 mm plates were infected at an moi of 10 pfu/cell and cells were harvested 48 h post infection. A cytoplasmic extract was prepared using 1% Triton X-100 and applied to Ni-NTA column. After washing the column with 20 mM imidazole, HcEGFR was eluted with 250 mM imidazole (in 50 mM Na2HPO4, pH 8.0, 300 mM NaCl). Fractions collected were dialyzed against 10 mM HEPES, pH 7.0, 50 mM NaCl, 10% glycerol, 1ug/mL antipain and leupeptin and 0.1 mM Pefabloc SC. The protein was frozen in dry ice/methanol and stored -70°C.
Test compounds were made into 10 mg/mL stock solutions in 100% dimethylsulfoxide (DMSO). Prior to experiment, stock solutions were diluted to 500 uM with 100% DMSO and then serially diluted to the desired concentration with HEPES buffer (30 mM HEPES pH 7.4).
For the enzyme reaction, 10 µL of each inhibitor (at various concentrations) were added to each well of a 96-well plate. To this was added 3 µL of enzyme (1:10 dilution in 10mM HEPES, pH 7.4 for final conc. of 1:120). This was allowed to sit for 10 min on ice and was followed by the addition of 5 µl peptide (80 µM final conc.), 10 µl of 4X Buffer (Table A), 0.25 µL ^33P-ATP and 12 µL H2O. The reaction was allowed to run for 90 min at room temperature and was followed by spotting the entire volume on to precut P81 filter papers. The filter discs were washed 2X with 0.5% phosphoric acid and radioactivity was measured using a liquid scintillation counter.
The % inhibition of the test compound was determined for at least three different concentrations and the IC50 value was evaluated from the dose response curve. […] CPM(control) is in units of counts per minute and was a number expressing the amount of radiolabled ATP (g-^33P) incorporated into the RR-SRC peptide substrate by the enzyme after 90 minutes at room temperature in the absence of test compound as measured by liquid scintillation counting. The CPM values were corrected for the background counts produced by ATP in the absence of the enzymatic reaction. The IC50 values in TABLE 1 are averages of the individual determinations.

For the next data set, the system named is SKBR3. Put plainly: Inhibition of Cancer Cell Growth as Measured by Cell Number. The class given is cell-based, Human. As to conditions: Homo sapiens, SK-BR-3; 48 hours exposure, Sulforhodamine B. The protocol:
(§1) Inhibition of Cancer Cell Growth as Measured bv Cell Number
(§2) Human tumor cell lines were plated in 96-well plates (250 µl/well, 1-6 x 10^4 cells/ml) in RPMI 1640 medium, containing 5% FBS (Fetal Bovine Serum). […] After 48 hours exposure to test compounds, cells were fixed with trichloroacetic acid, and stained with Sulforhodamine B. After washing with trichloroacetic acid, bound dye was solubilized in 10 mM Tris base and optical density was determined using plate reader. Under conditions of the assay the optical density is proportional to the number of cells in the well. […] The test procedure is described in details by Philip Skehan et. al, J.Natl. Canc. Inst., 82, 1107-1112 (1990). […] Information about some of the cell lines used in these test procedures is available from the American Type Tissue Collection: Cell Lines and Hybridomas, 1994 Reference Guide, 8th Edition.

For another data set, the system named is SW620. The data set is described as above. The class given is cell-based, Human. To be noted: Homo sapiens, SW-620; 48 hours exposure, Sulforhodamine B. Here is the method: as §1, §2
Another data set relates to A431. Described as above. As to conditions: Homo sapiens, A-431; 48 hours exposure, Sulforhodamine B. The class given is cell-based, Human. The protocol:
as §1, §2

The subject of a further data set is MDAMB435. The data set is described as above. The class given is cell-based, Human. As to conditions: Homo sapiens, MDA-MB-435; 48 hours exposure, Sulforhodamine B. Here is the method:
as §1, §2

A further data set has as its system 3T3. The data set is described as above. Format: cell-based. As to conditions: Mus musculus, NIH3T3; 48 hours exposure, Sulforhodamine B. The protocol:
as §1, §2

Another data set has as its system Her2/3T3. The data set is described as above. Format: cell-based. As to conditions: 48 hours exposure, Sulforhodamine B. The protocol:
as §1, §2

The subject of data set [4] is Human Epidermoid Tumors (A431). Put plainly: In Vivo Inhibition of the Growth of Human Epidermoid Tumors (A431) in mice. To be noted: for Relative Tumor Growth Day 7 / % T/C Day 7 / Relative Tumor Growth Day 14 / % T/C Day 14 / Relative Tumor Growth Day 21 / % T/C Day 21 / Relative Tumor Growth Day 28 / % T/C Day 28 / S/T (# of Survivors/# of Treated): Table 5, days 1 through 10; for % T/C Day 7 / % T/C Day 14 / % T/C Day 21 / % T/C Day 28: * = p < 0.01; for S/T (# of Survivors/# of Treated): Day +28 post tumor staging. Here is the method:
In Vivo Inhibition of the Growth of Human Epidermoid Tumors (A431)
BALB/c nu/nu female mice (Charles River, Wilmington, MA) were used in the in vivo standard pharmacological test procedures. Human epidermoid carcinoma cells A-431 (American Type Culture Collection, Rockville, Maryland # CRL-155) were grown in vitro as described above. A unit of 5 X 10^6 cells were injected SC into mice. […] Control animals received no drug. […] […] The %T/C (Tumor/Control) is determined by dividing the relative tumor growth of the treated group by the relative tumor growth of the placebo group and multiplying by 100.

T2 sequence (P00533 669-1210): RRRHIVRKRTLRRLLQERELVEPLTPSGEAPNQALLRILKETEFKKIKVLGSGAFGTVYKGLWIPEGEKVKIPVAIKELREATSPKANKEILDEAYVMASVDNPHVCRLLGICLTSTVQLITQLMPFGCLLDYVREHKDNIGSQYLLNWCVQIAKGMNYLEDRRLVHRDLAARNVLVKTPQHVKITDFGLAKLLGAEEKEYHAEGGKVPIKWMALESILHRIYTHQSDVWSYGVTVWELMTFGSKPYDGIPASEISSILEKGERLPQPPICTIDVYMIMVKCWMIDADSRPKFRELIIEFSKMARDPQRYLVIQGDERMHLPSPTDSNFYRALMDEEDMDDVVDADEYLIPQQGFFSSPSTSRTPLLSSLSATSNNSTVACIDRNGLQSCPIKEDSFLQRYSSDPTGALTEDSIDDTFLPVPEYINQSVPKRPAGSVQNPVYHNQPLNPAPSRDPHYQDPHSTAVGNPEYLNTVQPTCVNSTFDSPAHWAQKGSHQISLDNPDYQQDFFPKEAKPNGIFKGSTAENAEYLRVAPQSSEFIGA
Epithelial Cell Kinase (ECK), sequence (P29317 24-976, species assumed): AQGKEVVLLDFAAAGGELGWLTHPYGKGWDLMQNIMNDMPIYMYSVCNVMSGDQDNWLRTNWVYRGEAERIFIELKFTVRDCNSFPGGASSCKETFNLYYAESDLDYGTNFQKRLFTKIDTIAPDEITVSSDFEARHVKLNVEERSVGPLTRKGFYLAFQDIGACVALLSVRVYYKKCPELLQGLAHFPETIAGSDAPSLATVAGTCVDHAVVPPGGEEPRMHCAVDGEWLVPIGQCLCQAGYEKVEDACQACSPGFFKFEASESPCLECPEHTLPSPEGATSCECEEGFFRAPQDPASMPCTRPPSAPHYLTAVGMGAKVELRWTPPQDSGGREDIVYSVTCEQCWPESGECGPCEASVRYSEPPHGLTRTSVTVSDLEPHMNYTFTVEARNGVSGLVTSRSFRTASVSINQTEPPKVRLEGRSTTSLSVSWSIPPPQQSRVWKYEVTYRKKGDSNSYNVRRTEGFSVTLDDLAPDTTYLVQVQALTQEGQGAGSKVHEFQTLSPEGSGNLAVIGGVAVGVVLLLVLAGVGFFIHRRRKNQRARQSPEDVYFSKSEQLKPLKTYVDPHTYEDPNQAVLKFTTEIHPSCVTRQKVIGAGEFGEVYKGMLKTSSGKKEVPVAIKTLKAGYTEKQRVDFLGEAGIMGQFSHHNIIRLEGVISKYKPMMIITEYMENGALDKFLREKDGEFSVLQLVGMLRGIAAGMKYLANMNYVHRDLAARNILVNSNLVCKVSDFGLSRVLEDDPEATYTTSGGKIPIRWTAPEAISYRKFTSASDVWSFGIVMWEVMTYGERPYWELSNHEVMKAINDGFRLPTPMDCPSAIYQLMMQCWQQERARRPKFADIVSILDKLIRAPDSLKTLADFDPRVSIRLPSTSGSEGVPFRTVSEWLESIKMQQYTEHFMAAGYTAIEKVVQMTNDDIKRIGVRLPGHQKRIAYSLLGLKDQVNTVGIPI
Mek and Erk, sequence (Q02750 whole entry): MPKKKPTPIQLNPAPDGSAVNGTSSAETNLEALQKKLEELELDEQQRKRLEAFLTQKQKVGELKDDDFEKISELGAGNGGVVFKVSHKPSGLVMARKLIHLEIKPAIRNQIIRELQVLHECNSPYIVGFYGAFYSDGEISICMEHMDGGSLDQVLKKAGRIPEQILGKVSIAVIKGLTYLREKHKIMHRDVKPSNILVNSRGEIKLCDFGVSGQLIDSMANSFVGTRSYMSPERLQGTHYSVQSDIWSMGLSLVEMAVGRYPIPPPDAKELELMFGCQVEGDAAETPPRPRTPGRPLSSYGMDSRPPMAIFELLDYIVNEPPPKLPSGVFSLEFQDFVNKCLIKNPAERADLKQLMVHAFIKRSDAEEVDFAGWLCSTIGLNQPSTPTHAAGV
Mek and Erk, sequence (P28482 2-360): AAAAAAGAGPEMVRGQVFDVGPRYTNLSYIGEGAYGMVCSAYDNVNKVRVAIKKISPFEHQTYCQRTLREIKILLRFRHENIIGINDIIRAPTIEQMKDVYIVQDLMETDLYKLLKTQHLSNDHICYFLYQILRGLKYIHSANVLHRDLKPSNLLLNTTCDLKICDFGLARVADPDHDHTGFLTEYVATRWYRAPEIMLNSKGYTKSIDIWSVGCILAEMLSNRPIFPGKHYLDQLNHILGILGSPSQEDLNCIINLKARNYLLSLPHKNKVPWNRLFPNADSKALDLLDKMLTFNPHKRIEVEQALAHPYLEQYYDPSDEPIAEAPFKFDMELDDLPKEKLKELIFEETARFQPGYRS
T1 sequence (P35968 834-1162 limits assumed): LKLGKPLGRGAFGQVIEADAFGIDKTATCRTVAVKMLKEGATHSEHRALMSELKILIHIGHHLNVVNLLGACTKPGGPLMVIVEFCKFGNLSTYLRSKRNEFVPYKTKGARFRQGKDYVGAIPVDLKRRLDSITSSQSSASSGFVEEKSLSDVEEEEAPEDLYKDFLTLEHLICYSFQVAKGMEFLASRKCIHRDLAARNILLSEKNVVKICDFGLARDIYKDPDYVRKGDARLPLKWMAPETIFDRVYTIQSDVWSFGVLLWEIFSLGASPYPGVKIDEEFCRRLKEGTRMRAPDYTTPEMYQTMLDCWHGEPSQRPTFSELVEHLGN

For the compound `N#Cc1cnc2ccc(NC(=O)C#CCN3CCC4(CC3)OCCO4)cc2c1Nc1cccc(Br)c1` [Example 82, 4-(1,4-Dioxa-8-azaspiro[4,5]dec-8-yl)but-2-ynoic Acid [4-(3-Bromophenylamino)-3-cyanoquinolin-6-yl] Amide], the IC50 in data set [1] is above 1830 nM; in data set [2], above 1830 nM; at Mek and Erk, 30000 nM; in data set [3] it was 50 nM.

Take `COCCN(C)CC=CC(=O)Nc1cc2c(Nc3ccc(F)c(Cl)c3)c(C#N)cnc2cc1OC.Cl.Cl` [Example 89, 4-[(2-Methoxy-ethyl)-methyl-amino]-but-2-enoic acid [4-(3-chloro-4-fluoro-phenylamino)-3-cyano-7-methoxy-quinolin-6-yl]-amide dihydrochloride]: in the data set with SKBR3, the IC50 turned out to be 0.107 µg/mL. For the same compound, the IC50 in the data set on SW620 is 1.53 µg/mL. Further, the IC50 in the data set with A431 came out at 0.245 µg/mL. In the data set on MDAMB435, this compound came in with an IC50 of 2.07 µg/mL. In addition, the IC50 in [3] was 10 nM. The IC50 with 3T3 turned out to be 2.04 µg/mL. In addition, the IC50 in the data set with Her2/3T3 amounted to 0.192 µg/mL. For the same compound, in data set [4] (10 mg/kg/dose PO), the “Relative Tumor Growth Day 7” value came out at 2.09, the “% T/C Day 7” value is 50* %, the “Relative Tumor Growth Day 14” value stood at 3.37 and the “% T/C Day 14” value is 32* %. Further, in data set [4] (10 mg/kg/dose PO), the “Relative Tumor Growth Day 21” value was determined as 5.76, the “% T/C Day 21” value is on record as 38* %, the “Relative Tumor Growth Day 28” value worked out at 7.24 and the “% T/C Day 28” value is 26* %. Further, in [4] (10 mg/kg/dose PO), the “S/T (# of Survivors/# of Treated)” value was 4/5. Further, in [4] (40 mg/kg/dose PO), the “Relative Tumor Growth Day 7” value was determined as 0.49, the “% T/C Day 7” value is on record as 11* %, the “Relative Tumor Growth Day 14” value came to 0.58 and the “% T/C Day 14” value is listed as 6* %. In data set [4] (40 mg/kg/dose PO), the “Relative Tumor Growth Day 21” value is recorded as 3.11, the “% T/C Day 21” value was 21* %, the “Relative Tumor Growth Day 28” value is reported as 7.20 and the “% T/C Day 28” value was 26* %. Besides, in [4] (40 mg/kg/dose PO), the “S/T (# of Survivors/# of Treated)” value is recorded as 5/5. The “inhibition of tumor growth in vivo” value in [4] (given orally at 40 mg/Kg and 10 mg/Kg) is recorded as “effective inhibitor of tumor growth in vivo”.
